Assay results published in paper PMC6556873, “Rapid Covalent-Probe Discovery by Electrophile-Fragment Screening” (Journal of the American Chemical Society, 2019).
Where two headings read alike, the source gives them in different places.

Legend:
BSA = biological target: T1, BSA (Bos taurus, UniProt P02769); parameters: Intact protein LC/MS covalent labelling, fragments in pools of five, 200 uM each, 4 °C; conditions: 24 h, 4 °C, pool of five; 200 µM; covalent
T1 construct: gene ALB

NNMT (hNNMT) = biological target: T2, NNMT (hNNMT) (Homo sapiens, UniProt P40261); parameters: Intact protein LC/MS covalent labelling, fragments in pools of five, 200 uM each, 4 °C; conditions: 24 h, 4 °C, pool of five; 200 µM; covalent
T2 construct: wild type, N-terminal His6 tag kept (no cleavage described), E. coli, construct 31248 Da
T2 sequence (P40261 1-264): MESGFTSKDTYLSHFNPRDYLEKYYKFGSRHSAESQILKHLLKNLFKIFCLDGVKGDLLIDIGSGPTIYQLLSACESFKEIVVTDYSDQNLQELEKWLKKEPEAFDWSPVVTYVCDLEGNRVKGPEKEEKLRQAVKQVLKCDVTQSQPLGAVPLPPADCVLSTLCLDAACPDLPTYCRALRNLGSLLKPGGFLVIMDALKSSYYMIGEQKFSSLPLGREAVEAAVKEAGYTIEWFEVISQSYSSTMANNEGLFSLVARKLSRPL

NUDT7 = biological target: T3, NUDT7 (Homo sapiens, UniProt P0C024); parameters: Intact protein LC/MS covalent labelling, fragments in pools of five, 200 uM each, 4 °C; conditions: 24 h, 4 °C, pool of five; 200 µM; covalent
T3 construct: residues 14-235, E. coli, pNIC28-Bsa4, N-terminal His6 tag removed by TEV, construct 26672 Da
T3 sequence (P0C024 14-235): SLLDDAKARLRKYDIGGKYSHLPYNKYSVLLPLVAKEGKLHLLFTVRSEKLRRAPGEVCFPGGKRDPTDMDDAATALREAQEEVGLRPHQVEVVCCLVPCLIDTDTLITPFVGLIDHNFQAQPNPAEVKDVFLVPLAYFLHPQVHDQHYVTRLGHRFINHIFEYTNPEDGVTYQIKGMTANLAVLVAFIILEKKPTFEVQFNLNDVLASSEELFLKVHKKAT

OTUB2 (OTUB2A) = biological target: T4, OTUB2 (OTUB2A) (Homo sapiens, UniProt Q96DC9); parameters: Intact protein LC/MS covalent labelling, fragments in pools of five, 200 uM each, 4 °C; conditions: 24 h, 4 °C, pool of five; 200 µM; covalent
T4 construct: full length residues 1-234, E. coli BL21(DE3)-R3, His tag removed by TEV, construct 27312 Da
T4 sequence (Q96DC9 1-234): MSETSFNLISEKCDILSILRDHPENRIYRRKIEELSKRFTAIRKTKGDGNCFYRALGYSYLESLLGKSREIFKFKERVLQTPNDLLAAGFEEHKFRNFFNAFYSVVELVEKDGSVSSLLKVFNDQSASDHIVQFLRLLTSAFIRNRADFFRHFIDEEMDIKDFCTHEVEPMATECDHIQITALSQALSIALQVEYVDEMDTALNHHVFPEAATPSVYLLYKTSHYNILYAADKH

PCAF = biological target: T5, PCAF (Homo sapiens, UniProt Q92831); parameters: Intact protein LC/MS covalent labelling, fragments in pools of five, 200 uM each, 4 °C; conditions: 24 h, 4 °C, pool of five; 200 µM; covalent
T5 construct: gene KAT2B
T5 sequence (Q92831 whole entry, the tested form may be a part): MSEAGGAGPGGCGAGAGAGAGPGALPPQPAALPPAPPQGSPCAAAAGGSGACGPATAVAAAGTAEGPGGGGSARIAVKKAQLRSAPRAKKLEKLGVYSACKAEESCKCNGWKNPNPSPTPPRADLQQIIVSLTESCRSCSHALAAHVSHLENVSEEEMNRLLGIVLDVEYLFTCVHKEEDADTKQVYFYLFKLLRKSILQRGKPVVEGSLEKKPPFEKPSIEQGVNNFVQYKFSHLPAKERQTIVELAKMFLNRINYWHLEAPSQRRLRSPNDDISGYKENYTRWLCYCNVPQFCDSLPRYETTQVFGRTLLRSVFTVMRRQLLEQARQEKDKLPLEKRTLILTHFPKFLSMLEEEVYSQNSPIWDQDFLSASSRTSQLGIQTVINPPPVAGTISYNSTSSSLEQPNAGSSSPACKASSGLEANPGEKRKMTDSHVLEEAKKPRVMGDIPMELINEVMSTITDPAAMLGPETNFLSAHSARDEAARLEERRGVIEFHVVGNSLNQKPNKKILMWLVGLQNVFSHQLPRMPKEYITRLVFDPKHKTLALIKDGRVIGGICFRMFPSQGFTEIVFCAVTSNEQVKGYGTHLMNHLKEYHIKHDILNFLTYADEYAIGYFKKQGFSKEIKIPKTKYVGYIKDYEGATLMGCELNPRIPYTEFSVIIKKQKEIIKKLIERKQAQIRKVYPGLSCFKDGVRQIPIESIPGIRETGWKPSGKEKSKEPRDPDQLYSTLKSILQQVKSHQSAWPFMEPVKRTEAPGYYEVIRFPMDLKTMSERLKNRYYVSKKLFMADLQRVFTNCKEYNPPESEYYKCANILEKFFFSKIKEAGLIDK

in vitro [1] = assay: in vitro; parameters: species or system CCD841, HEK293; conditions: human, hb2 cells, read-out: HB-2 Cells Viability (%)
in vitro [2] = assay: in vitro; parameters: species or system HB2, HEK293; conditions: human, ccd841 cells
in vitro [3] = assay: in vitro; parameters: species or system HB2, CCD841; conditions: human, hek293 cells

T1 sequence (P02769 whole entry, the tested form may be a part): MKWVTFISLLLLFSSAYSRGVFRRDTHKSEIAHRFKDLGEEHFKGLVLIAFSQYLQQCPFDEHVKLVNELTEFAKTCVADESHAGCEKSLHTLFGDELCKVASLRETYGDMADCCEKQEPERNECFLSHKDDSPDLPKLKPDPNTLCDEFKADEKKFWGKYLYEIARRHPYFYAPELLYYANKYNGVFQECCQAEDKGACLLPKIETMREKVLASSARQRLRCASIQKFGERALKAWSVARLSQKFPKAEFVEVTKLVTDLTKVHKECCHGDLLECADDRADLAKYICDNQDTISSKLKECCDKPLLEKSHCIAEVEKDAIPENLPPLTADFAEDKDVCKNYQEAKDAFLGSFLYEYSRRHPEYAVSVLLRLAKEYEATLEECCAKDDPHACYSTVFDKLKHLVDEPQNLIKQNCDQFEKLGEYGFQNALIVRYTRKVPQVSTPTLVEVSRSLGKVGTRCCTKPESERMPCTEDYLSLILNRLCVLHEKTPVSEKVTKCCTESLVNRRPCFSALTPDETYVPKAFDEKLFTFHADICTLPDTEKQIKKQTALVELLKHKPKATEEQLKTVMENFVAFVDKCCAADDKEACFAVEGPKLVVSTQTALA

| SMILES | BSA (BSA) | NNMT (NNMT (hNNMT)) | NUDT7 (NUDT7) | OTUB2 (OTUB2 (OTUB2A)) | PCAF (PCAF) | viability at 48 h, 10 µM (in vitro [1]) | viability at 48 h, 10 µM (in vitro [2]) | viability at 48 h, 10 µM (in vitro [3]) |
| --- | --- | --- | --- | --- | --- | --- | --- | --- |
| CC(NC(=O)CCl)c1ccco1 (stereo not drawn) [PCM-0102798] | 0 | 0 | 0.14 | 0.19 | 0 | 95.8% | 97.1% | 88.4% |
| Cc1cc(Br)ccc1NC(=O)CCl [PCM-0102799] | 0 | 0.39 | 0.24 | 0.61 | 0 | 34.9% | 63.3% | 4.7% |
| O=C(CCl)NC1c2ccccc2-c2ccccc21 [PCM-0102802] | 0 | 0 | 0.19 | 0.16 | 0 | 61.8% | 82.7% | 58.9% |
| NS(=O)(=O)c1ccc(NC(=O)CCl)cc1 [PCM-0102807] | 0 | 0 | 0 | 0.29 | 0 | 53.8% | 56.9% | 8% |
| C=CC(=O)N1CCC(c2noc(C3CC3)n2)CC1 [PCM-0102810] | 0 | 0 | 0.06 | 0 | 0 | 103% | 103% | 94.1% |
| C#CCN1CCN(C(=O)CCl)CC1.Cl [PCM-0102811] | 0 | 0 | 0 | 0 | 0 | 92.5% | 84.9% | 72.2% |
| C#Cc1cccc(NC(=O)NC(=O)CCl)c1 [PCM-0102813] | 0 | 0 | 0.13 | 0.14 | 0 | 74.1% | 82.2% | 73.2% |
| Cl.O=C(CCl)N1CCN(Cc2ccc3c(c2)CCO3)CC1 [PCM-0102814] | 0.11 | 0.24 | 0 | 0 | 0 | 22.2% | 58.5% | 37.6% |
| CC(NC(=O)CCl)c1ccc2c(c1)CC(=O)N2 (stereo not drawn) [PCM-0102816] | 0 | 0 | 0.22 | 0.29 | 0 | 94.8% | 86% | 74.8% |
| Cc1cccc(CNC(=O)CCl)c1 [PCM-0102821] | 0 | 0.29 | 0 | 0.86 | 0 | 99.7% | 80.7% | 87.5% |
| O=C(CCl)NC(=O)CN1CCCC1=O [PCM-0102824] | 0 | 0 | 0 | 0 | 0 | 105% | 111% | 110% |

Further lines, with some results ahead:

| BSA (BSA) | NNMT (NNMT (hNNMT)) | NUDT7 (NUDT7) | OTUB2 (OTUB2 (OTUB2A)) | PCAF (PCAF) | SMILES | viability at 48 h, 10 µM (in vitro [1]) | viability at 48 h, 10 µM (in vitro [2]) | viability at 48 h, 10 µM (in vitro [3]) |
| --- | --- | --- | --- | --- | --- | --- | --- | --- |
| 0 | 0 | 0 | 0.3 | 0 | Cc1ccccc1CC(=O)NNC(=O)CCl [PCM-0102829] | 90.9% | 83.9% | 104% |
| 0 | 0 | 0 | 0 | 0 | O=C(CCl)N=c1sccn1Cc1cccc2ccccc12 [PCM-0102842] | 8.4% | 4.2% | 5.2% |
| 0 | 0 | 0 | 0.13 | 0 | Cc1ccc(S(=O)(=O)NC(=O)CCl)cc1 [PCM-0102850] | 101% | 114% | 81.4% |
| 0 | 0.24 | 0 | 0 | 0 | CC(C)(C)CCNC(=O)CCl [PCM-0102853] | 99.7% | 91.6% | 102% |
| 0 | 0 | 0.09 | 0 | 0 | N#CC1(NC(=O)CCl)CCC1 [PCM-0102854] | 90% | 81.1% | 93.1% |
| 0 | 0 | 0 | 0.41 | 0 | N#Cc1cccc(C(=O)NNC(=O)CCl)c1 [PCM-0102857] | 103% | 82.6% | 102% |
| 0 | 0 | 0 | 0 | 0 | CCOC(=O)N1CCN(C(=O)CCl)CC1 [PCM-0102861] | 114% | 109% | 82.6% |
| 0 | 0.29 | 0 | 0.14 | 0 | O=C(CCl)NC1CCCC(C(F)(F)F)C1 (stereo not drawn) [PCM-0102862] | 95% | 106% | 84% |
| 0 | 0 | 0 | 0.3 | 0 | O=C(CCl)Nc1ccc2[nH]c(=O)[nH]c2c1 [PCM-0102866] | 77.3% | 73.7% | 27.5% |
| 0 | 0 | 0 | 0 | 0 | CC1CCCN(C(=O)CCl)C1 (stereo not drawn) [PCM-0102867] | 102% | 104% | 103% |
| 0 | 0 | 0 | 0.44 | 0 | O=C(CCl)NC1CCOc2ccccc21 (stereo not drawn) [PCM-0102871] | 92.9% | 87.1% | 69.5% |
| 0.17 | 0 | 0 | 0 | 0 | COc1cc(=O)[nH]c(NC(=O)CCl)n1 [PCM-0102873] | 99.9% | 100% | 114% |
| 0 | 0 | 0 | 0 | 0 | Cc1ccccc1CN1CCN(C(=O)CCl)CC1.Cl [PCM-0102876] | 31.1% | 69.2% | 38.1% |
| 0 | 0 | 0 | 0 | 0 | C=CC(=O)NC(=O)Nc1ccccc1 [PCM-0102883] | 5.4% | 17.8% | 4% |
| 0 | 0 | 0 | 0.21 | 0 | O=C(CCl)NNC(=O)c1ccc([N+](=O)[O-])cc1 [PCM-0102885] | 91% | 83.3% | 92.9% |
| 0 | 0 | 0 | 0 | 0 | C=CC(=O)N1CCN(C2CCCN(C3CCOCC3)C2=O)CC1 (stereo not drawn) [PCM-0102886] | 106% | 105% | 104% |
